Tests used:
Format in all cases: biochemical
[1] = target: SRC (Homo sapiens, UniProt P12931); assay: Inhibition of a panel of kinases, in vitro HotSpot kinase assay: SRC; conditions: D-compounds panel data; 1 μM ATP
Description: (§1) The degree of inhibition of a panel of kinases is determined using the in vitro HotSpot kinase assay (purified enzymes, ^33P-ATP, an appropriate substrate and 1 μM ATP).

[2] = target: T1, BTK-WT (Homo sapiens, UniProt Q06187); assay: Btk in vitro inhibitory activity (one of Method A TR-FRET, Method B electrophoretic mobility shift, Method C radiometric filter binding); conditions: D-compounds panel data; read-out: IC50 BTK-WT
T1 construct: purified from insect cells as a full-length construct containing an N-terminal 6X-His tag; His6 (N); made in house; host or cells: insect cells (baculovirus Sf21 in Method B)

[3] = target: T2, TEC (Homo sapiens, UniProt P42680); assay: Inhibition of a panel of kinases, in vitro HotSpot kinase assay: TEC; conditions: D-compounds panel data; 1 μM ATP
T2 sequence (P42680 1-631): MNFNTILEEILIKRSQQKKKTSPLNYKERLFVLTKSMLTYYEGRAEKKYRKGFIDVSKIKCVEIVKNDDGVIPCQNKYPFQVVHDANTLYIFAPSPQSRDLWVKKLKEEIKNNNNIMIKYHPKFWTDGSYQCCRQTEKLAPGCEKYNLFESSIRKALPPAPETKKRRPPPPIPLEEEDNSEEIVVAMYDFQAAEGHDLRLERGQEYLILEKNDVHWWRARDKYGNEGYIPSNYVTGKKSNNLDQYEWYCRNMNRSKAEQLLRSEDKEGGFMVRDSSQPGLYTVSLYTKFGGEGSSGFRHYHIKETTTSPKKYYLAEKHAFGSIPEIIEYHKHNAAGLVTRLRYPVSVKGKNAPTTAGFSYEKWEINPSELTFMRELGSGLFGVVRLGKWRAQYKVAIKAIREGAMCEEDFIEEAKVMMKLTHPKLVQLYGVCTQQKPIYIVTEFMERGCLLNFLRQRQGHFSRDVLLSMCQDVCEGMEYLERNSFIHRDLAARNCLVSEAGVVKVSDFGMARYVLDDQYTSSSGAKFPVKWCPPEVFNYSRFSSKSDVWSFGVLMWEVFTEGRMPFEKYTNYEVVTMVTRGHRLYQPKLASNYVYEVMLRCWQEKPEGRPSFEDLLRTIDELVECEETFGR
Description: as §1

[4] = target: T3, ITK (Homo sapiens, UniProt Q08881); assay: Inhibition of a panel of kinases, in vitro HotSpot kinase assay: ITK; conditions: D-compounds panel data; 1 μM ATP
T3 sequence (Q08881 1-620): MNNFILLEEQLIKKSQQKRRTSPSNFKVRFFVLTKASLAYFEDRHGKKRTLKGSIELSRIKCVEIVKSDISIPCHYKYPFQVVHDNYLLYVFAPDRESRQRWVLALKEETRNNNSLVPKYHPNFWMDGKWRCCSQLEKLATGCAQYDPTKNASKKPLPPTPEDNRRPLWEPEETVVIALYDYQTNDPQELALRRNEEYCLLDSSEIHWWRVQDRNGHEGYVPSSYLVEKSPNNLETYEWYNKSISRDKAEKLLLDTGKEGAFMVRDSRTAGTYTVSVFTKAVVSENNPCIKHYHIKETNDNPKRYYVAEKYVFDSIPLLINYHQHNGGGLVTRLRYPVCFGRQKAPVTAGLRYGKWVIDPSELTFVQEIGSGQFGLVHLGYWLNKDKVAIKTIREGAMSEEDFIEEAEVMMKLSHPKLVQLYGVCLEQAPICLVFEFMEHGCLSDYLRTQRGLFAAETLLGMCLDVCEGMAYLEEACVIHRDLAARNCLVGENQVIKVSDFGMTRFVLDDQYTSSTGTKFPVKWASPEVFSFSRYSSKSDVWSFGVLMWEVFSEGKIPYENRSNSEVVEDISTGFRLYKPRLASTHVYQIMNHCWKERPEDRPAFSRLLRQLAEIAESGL
Description: as §1

[5] = target: EGFR (Homo sapiens, UniProt P00533); assay: Inhibition of a panel of kinases, in vitro HotSpot kinase assay: EGFR; conditions: D-compounds panel data; 1 μM ATP
Description: as §1

T1 sequence (Q06187 whole entry): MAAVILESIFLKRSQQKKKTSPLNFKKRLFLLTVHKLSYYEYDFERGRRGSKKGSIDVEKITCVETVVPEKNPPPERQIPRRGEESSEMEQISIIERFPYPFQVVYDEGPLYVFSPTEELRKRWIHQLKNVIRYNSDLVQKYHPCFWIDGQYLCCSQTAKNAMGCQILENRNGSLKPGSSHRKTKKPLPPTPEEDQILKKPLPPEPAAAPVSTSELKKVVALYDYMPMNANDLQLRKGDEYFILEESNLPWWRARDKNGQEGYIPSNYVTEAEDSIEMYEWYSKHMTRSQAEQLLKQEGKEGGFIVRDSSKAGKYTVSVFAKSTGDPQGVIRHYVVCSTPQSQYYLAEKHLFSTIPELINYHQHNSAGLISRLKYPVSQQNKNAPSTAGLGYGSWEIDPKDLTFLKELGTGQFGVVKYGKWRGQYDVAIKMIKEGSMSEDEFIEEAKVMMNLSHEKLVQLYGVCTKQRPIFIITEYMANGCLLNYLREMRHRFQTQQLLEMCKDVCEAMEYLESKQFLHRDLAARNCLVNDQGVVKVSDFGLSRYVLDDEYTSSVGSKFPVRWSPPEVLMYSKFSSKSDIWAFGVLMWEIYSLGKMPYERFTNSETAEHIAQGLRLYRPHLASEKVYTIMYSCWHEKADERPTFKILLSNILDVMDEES
SRC, sequence (P12931 whole entry): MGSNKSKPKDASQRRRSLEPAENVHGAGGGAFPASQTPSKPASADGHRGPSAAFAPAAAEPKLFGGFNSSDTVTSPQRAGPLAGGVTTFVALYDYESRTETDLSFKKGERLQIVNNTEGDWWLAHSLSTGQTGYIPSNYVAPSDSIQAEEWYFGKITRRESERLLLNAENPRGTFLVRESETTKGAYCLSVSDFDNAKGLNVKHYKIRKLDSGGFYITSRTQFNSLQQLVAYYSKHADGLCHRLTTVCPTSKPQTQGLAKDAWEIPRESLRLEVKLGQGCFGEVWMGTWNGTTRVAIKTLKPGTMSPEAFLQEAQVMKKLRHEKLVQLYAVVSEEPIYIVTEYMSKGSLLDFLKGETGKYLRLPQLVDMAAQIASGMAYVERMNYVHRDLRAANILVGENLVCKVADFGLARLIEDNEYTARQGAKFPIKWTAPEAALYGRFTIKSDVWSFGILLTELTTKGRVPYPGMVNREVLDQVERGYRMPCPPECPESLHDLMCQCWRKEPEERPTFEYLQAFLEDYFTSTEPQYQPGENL
EGFR, sequence (P00533 25-1210): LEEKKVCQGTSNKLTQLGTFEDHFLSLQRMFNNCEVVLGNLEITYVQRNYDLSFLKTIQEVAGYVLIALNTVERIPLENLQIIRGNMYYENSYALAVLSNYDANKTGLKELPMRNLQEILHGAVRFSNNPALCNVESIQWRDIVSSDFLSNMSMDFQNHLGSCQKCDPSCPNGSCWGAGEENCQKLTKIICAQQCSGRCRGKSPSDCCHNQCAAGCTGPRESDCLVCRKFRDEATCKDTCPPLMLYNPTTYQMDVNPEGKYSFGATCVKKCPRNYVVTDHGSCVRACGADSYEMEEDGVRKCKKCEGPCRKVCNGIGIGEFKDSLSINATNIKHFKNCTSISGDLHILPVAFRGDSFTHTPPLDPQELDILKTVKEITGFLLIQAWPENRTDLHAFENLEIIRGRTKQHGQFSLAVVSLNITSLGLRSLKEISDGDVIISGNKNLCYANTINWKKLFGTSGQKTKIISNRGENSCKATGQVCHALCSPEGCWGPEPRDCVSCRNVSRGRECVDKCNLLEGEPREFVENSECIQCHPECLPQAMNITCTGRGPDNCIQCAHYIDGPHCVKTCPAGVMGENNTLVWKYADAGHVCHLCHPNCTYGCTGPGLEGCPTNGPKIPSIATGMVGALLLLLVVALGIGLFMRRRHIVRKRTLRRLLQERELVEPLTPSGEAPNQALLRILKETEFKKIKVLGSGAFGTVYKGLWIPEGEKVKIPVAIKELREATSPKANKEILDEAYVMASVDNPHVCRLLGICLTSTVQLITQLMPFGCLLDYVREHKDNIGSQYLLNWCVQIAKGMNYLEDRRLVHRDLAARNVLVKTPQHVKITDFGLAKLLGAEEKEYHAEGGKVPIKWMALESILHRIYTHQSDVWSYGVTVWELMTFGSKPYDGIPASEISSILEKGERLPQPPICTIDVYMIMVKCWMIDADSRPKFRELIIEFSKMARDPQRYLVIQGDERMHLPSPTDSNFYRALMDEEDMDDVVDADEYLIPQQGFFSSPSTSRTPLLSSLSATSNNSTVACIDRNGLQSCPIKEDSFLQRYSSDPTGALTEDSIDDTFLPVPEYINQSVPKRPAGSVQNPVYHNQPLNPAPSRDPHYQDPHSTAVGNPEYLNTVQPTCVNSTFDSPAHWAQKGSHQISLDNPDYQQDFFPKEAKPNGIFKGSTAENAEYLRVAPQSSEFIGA

Structure (SMILES) | IC50 [1] | IC50 [2] | IC50 [3] | IC50 [4] | IC50 [5]
Cc1ccc(-c2cnc([C@H]3CCCN(c4cnc(C(N)=O)c(Nc5cc(C)ns5)n4)C3)[nH]2)cc1 [Example D-136, 3-[(3-methyl-1,2-thiazol-5-yl)amino]-5-[(3S)-3-[5-(4-methylphenyl)-1H-imidazol-2-yl]piperidin-1-yl]pyrazine-2-carboxamide] | 0.1 to 1 µM | 0.01 to 0.1 µM | 0.1 to 1 µM | 1 to 10 µM | 0.1 to 1 µM
Cc1ccc(-c2cnc([C@@H]3CCCN(c4cnc(C(N)=O)c(Nc5cc(C)ns5)n4)C3)[nH]2)cc1 [Example D-137, 3-[(3-methyl-1,2-thiazol-5-yl)amino]-5-[(3R)-3-[5-(4-methylphenyl)-1H-imidazol-2-yl]piperidin-1-yl]pyrazine-2-carboxamide] | 1 to 10 µM | 0.01 to 0.1 µM | 1 to 10 µM | > 10 µM | 1 to 10 µM
C[C@@H]1[C@H](NC(=O)c2ccc(C3CC3)cc2F)CCCN1c1cnc(C(N)=O)c(Nc2ccc(C3(C)CCN(C4CC4)CC3)cc2)n1 [Example D-138, 5-[(2R,3R)-3-(4-cyclopropyl-2-fluorobenzamido)-2-methylpiperidin-1-yl]-3-{[4-(1-cyclopropyl-4-methylpiperidin-4-yl)phenyl]amino}pyrazine-2-carboxamide] | 0.1 to 1 µM | ≤ 0.01 µM | 0.01 to 0.1 µM | 0.1 to 1 µM | 0.1 to 1 µM
C[C@@H]1[C@H](NC(=O)c2ccc(C3CC3)cc2F)CCCN1c1cnc(C(N)=O)c(Nc2ccc(S(=O)(=O)N3CCCC3)cc2)n1 [Example D-139, 5-[(2R,3R)-3-(4-cyclopropyl-2-fluorobenzamido)-2-methylpiperidin-1-yl]-3-{[4-(pyrrolidine-1-sulfonyl)phenyl]amino}pyrazine-2-carboxamide] | > 10 µM | ≤ 0.01 µM | 0.1 to 1 µM | > 10 µM | 1 to 10 µM
C[C@@H]1[C@H](NC(=O)c2ccc(C3CC3)cc2)CCCN1c1cnc(C(N)=O)c(Nc2cc(CN3CCCCC3)ns2)n1 [Example D-140, 5-[(2R,3R)-3-(4-cyclopropylbenzamido)-2-methylpiperidin-1-yl]-3-{[3-(piperidin-1-ylmethyl)-1,2-thiazol-5-yl]amino}pyrazine-2-carboxamide] | 0.01 to 0.1 µM | ≤ 0.01 µM | 0.01 to 0.1 µM | 0.01 to 0.1 µM | 1 to 10 µM
CN1CCC(n2cc(Nc3nc(N4CCC[C@@H](n5ccc6cc(C7CC7)ccc6c5=O)C4)cnc3C(N)=O)cn2)CC1 [Example D-141, 5-[(3R)-3-(6-cyclopropyl-1-oxo-1,2-dihydroisoquinolin-2-yl)piperidin-1-yl]-3-{[1-(1-methylpiperidin-4-yl)-1H-pyrazol-4-yl]amino}pyrazine-2-carboxamide] | 0.1 to 1 µM | ≤ 0.01 µM | 0.01 to 0.1 µM | 0.1 to 1 µM | 1 to 10 µM
C[C@@H]1[C@H](NC(=O)c2ccc(C3CC3)cc2)CCCN1c1cnc(C(N)=O)c(Nc2ccc(N3CCN(C)CC3)c(F)c2)n1 [Example D-146, 5-[(2R,3R)-3-(4-cyclopropylbenzamido)-2-methylpiperidin-1-yl]-3-{[3-fluoro-4-(4-methylpiperazin-1-yl)phenyl]amino}pyrazine-2-carboxamide] | 0.01 to 0.1 µM | ≤ 0.01 µM | 0.01 to 0.1 µM | 0.01 to 0.1 µM | 0.1 to 1 µM
Cn1cc(Nc2nc(N3CCCC4(C3)CN(c3ccc(C5CC5)cc3)C(=O)O4)cnc2C(N)=O)cn1 [Example D-147, 5-[3-(4-cyclopropylphenyl)-2-oxo-1-oxa-3,7-diazaspiro[4.5]decan-7-yl]-3-[(1-methyl-1H-pyrazol-4-yl)amino]pyrazine-2-carboxamide] | 0.1 to 1 µM | 0.01 to 0.1 µM | 0.1 to 1 µM | > 10 µM | 1 to 10 µM
Cc1cccc(-c2cnc(C3CCCN(c4cnc(C(N)=O)c(Nc5cnn(C)c5)n4)C3)[nH]2)c1 [Example D-148, 3-[(1-methyl-1H-pyrazol-4-yl)amino]-5-{3-[5-(3-methylphenyl)-1H-imidazol-2-yl]piperidin-1-yl}pyrazine-2-carboxamide] | 0.1 to 1 µM | 0.01 to 0.1 µM | 0.1 to 1 µM | 1 to 10 µM | 1 to 10 µM
C[C@@H]1CC[C@H](NC(=O)N(C)C)CN1c1cnc(C(N)=O)c(Nc2cnn(C)c2)n1 [Example D-151, 5-[(2R,5S)-5-[(dimethylcarbamoyl)amino]-2-methylpiperidin-1-yl]-3-[(1-methyl-1H-pyrazol-4-yl)amino]pyrazine-2-carboxamide] | 0.1 to 1 µM | 0.01 to 0.1 µM | 0.01 to 0.1 µM | 1 to 10 µM | 1 to 10 µM
C[C@H]1CC[C@@H](NC(=O)N(C)C)CN1c1cnc(C(N)=O)c(Nc2cnn(C)c2)n1 [Example D-152, 5-[(2S,5R)-5-[(dimethylcarbamoyl)amino]-2-methylpiperidin-1-yl]-3-[(1-methyl-1H-pyrazol-4-yl)amino]pyrazine-2-carboxamide] | 0.1 to 1 µM | 0.01 to 0.1 µM | 0.01 to 0.1 µM | 1 to 10 µM | 1 to 10 µM

Second part, the compound after the results:

IC50 [1] | IC50 [2] | IC50 [3] | IC50 [4] | IC50 [5] | Structure (SMILES)
0.01 to 0.1 µM | ≤ 0.01 µM | 0.01 to 0.1 µM | 1 to 10 µM | 1 to 10 µM | C[C@H]1CC[C@@H](NC(=O)c2ccc(C3CC3)cc2)CN1c1cnc(C(N)=O)c(Nc2cnn(C)c2)n1 [Example D-142, 5-[(2S,5R)-5-(4-cyclopropylbenzamido)-2-methylpiperidin-1-yl]-3-[(1-methyl-1H-pyrazol-4-yl)amino]pyrazine-2-carboxamide]
1 to 10 µM | 0.01 to 0.1 µM | 0.1 to 1 µM | > 10 µM | 1 to 10 µM | C[C@@H]1CC[C@@H](NC(=O)c2ccc(C3CC3)cc2)CN1c1cnc(C(N)=O)c(Nc2cnn(C)c2)n1 [Example D-143, 5-[(2R,5R)-5-(4-cyclopropylbenzamido)-2-methylpiperidin-1-yl]-3-[(1-methyl-1H-pyrazol-4-yl)amino]pyrazine-2-carboxamide]
1 to 10 µM | 0.1 to 1 µM | 1 to 10 µM | > 10 µM | > 10 µM | C[C@H]1CC[C@H](NC(=O)c2ccc(C3CC3)cc2)CN1c1cnc(C(N)=O)c(Nc2cnn(C)c2)n1 [Example D-144, 5-[(2S,5S)-5-(4-cyclopropylbenzamido)-2-methylpiperidin-1-yl]-3-[(1-methyl-1H-pyrazol-4-yl)amino]pyrazine-2-carboxamide]
1 to 10 µM | 0.01 to 0.1 µM | 1 to 10 µM | > 10 µM | 1 to 10 µM | C[C@@H]1CC[C@H](NC(=O)c2ccc(C3CC3)cc2)CN1c1cnc(C(N)=O)c(Nc2cnn(C)c2)n1 [Example D-145, 5-[(2R,5S)-5-(4-cyclopropylbenzamido)-2-methylpiperidin-1-yl]-3-[(1-methyl-1H-pyrazol-4-yl)amino]pyrazine-2-carboxamide]
0.1 to 1 µM | 0.01 to 0.1 µM | 0.1 to 1 µM | 0.1 to 1 µM | > 10 µM | C[C@@H]1CC[C@H](NC(=O)c2ccc(C3CC3)cc2)CN1c1cnc(C(N)=O)c(Nc2ccc(N3CCN(C)CC3)c(F)c2)n1 [Example D-149, 5-[(2R,5 S)-5-(4-cyclopropylbenzamido)-2-methylpiperidin-1-yl]-3-{[3-fluoro-4-(4-methylpiperazin-1-yl)phenyl]amino}pyrazine-2-carboxamide]
0.01 to 0.1 µM | ≤ 0.01 µM | ≤ 0.01 µM | 0.1 to 1 µM | 0.1 to 1 µM | C[C@H]1CC[C@@H](NC(=O)c2ccc(C3CC3)cc2)CN1c1cnc(C(N)=O)c(Nc2ccc(N3CCN(C)CC3)c(F)c2)n1 [Example D-150, 5-[(2S,5R)-5-(4-cyclopropylbenzamido)-2-methylpiperidin-1-yl]-3-{[3-fluoro-4-(4-methylpiperazin-1-yl)phenyl]amino}pyrazine-2-carboxamide]
